Experimental data as given in publication PMC9231138, “Dihydrotanshinone I Enhances Cell Adhesion and Inhibits Cell Migration in Osteosarcoma U−2 OS Cells through CD44 and Chemokine Signaling” (Molecules, 2022).

Tests used:
Type in all cases: cell-based, human
[1] = system: pAKT; assay: Western blot pAKT; details: 24 h
Experimental: Sample preparation: U−2 OS cells seeded in 10 cm Petri dishes were collected and washed with ice-cold PBS and RIPA lysis buffer with PMAF; phosphatase inhibitor was added, and the tubes were placed on ice for 30 min and vortexed for 30 s at intervals of 10 min. The samples were centrifuged at 12,000 g at 4 °C for 15 min, and the supernatants were collected in new centrifuge tubes. The protein samples were placed on ice, and the concentration of each protein sample was measured by the BCA kit (Thermo). The protein concentration was adjusted to the same by milli Q ultrapure water.
Loading and running the gel: Equal amounts of protein were loaded into the wells of the 10% SDS-PAGE gel, along with molecular weight markers, and 15 μg of total protein from the cell lysate was loaded. We then ran the gel for 45 min at 200 V.
Transferring the protein: We prepared the transfer stack as follows: negative plate, sponge, filter paper, gel, PVDF membrane, filter paper, sponge, and positive plate. The transfer was for 90 min at 200 mA.
Antibody staining: We blocked the membrane for 1 h at room temperature using 5% blocking solution, then incubated the membrane with appropriate dilutions of the primary antibody in the blocking solution overnight at 4 °C. We then washed the membrane with TBST reagent 3 times, 5 min each. Then, we incubated the membrane with the recommended dilution of labeled secondary antibody in blocking solution at room temperature for 1 h and washed the membrane with TBST reagent 3 times, 5 min each. For signal development, super-enhanced chemiluminescence detection reagents were added to the surface of the membrane for 1 min, then excess reagent was removed, and the membrane was covered in transparent plastic wrap. Images were acquired using darkroom development techniques for chemiluminescence and analyzed by Image J.

[2] = system: vimentin; assay: RT-PCR vimentin mRNA in U−2 OS cells; details: 24 h
Experimental: (§1) Total RNA within cells was extracted by the RNAeasy™ Animal Long RNA Isolation Kit with Spin Column (Shanghai, Beyotime); the concentrations and OD260/OD280 and OD230/OD260 values were measured by NanoDrop. Five micrograms of RNA was used for reverse transcription; each sample was diluted to 16 μL, and 4 μL of synthesized premix solution (5×) was added, then the mixtures were placed in a 42 °C water bath for 10 min, then an 80 °C water bath for 10 min to deactivate reverse transcriptase. After reverse transcription, each sample was diluted to 140 μL. PCR amplification was carried out by the ABI700 real-time PCR system, and the amplification reaction was detected with a SYBR probe. After PCR, actin and GAPDH were used as internal references, and the relative standard curve method (2^−ΔΔcT) determined the relative expression of mRNA.

[3] = system: CDK2; assay: RT-PCR CDK2 mRNA in U−2 OS cells; details: 24 h
Experimental: as §1

[4] = system: IL6; assay: RT-PCR IL6 mRNA in U−2 OS cells; details: 24 h
Experimental: as §1

[5] = system: U−2 OS cells; assay: Cell cycle distribution by flow cytometry; details: 24 h, mean ± SD
Experimental: The cell cycle is a key regulator of cell survival and the repair signal network. It has direct effects on multiple cell processes, including cell proliferation, DNA repair, apoptosis, and cell migration. Thus, it was further analyzed by flow cytometry. As shown in Table 2 and Figure 5A–E, after treatment with DS−1 at doses of 0, 2.5, 5.0, and 7.5 µM for 24 h, the distribution of the cell cycle was measured and the proportion of the G0/G1 phase was 54.70 ± 2.21%, 61.07 ± 2.04%, 65.20 ± 4.35%, and 65.65 ± 1.83%, respectively. In addition, the proportion of U−2 OS cells at the G0/G1 phase increased with the increase in the DS−1 concentration (Figure 5A–E), implying possible cell cycle arrest at the G0/G1 phase.
Figure 5 DS−1 regulated the cell cycle of U−2 OS cells. (A–D) Cell cycle of U−2 OS cells was retained in the G0/G1 phase. U−2 OS cells were treated with DS−1 at 0, 2.5, 5.0, and 7.5 µM for 24 h, and the cell cycle ratio was measured by flow cytometry; the cell cycle distribution is shown in Table 2. (E) Histogram of cell cycle distribution after U−2 OS cells were treated with DS−1. (F) Heatmap of the expression of genes relating to cell cycle in the transcriptome results. (G–K) In U−2 OS cells treated with DS−1 at concentrations of 0, 2.5, 5.0, and 7.5 μM, RNA was extracted and analyzed by RT-PCR, and the changes in CDK2, cyclin D1, cyclin E1, and p21 mRNA are presented in the histogram. (L) Cyclin D1 and cyclin E1 protein relative expression was analyzed by Western blot. Values are the average of three independent experiments, * p < 0.05, ** p < 0.01, *** p < 0.005. TEXT PRINTED IN THE PICTURE: (A) DS-1: G1(54.88%) (0 μM); S(19.57%) (0 μM); G2(23.84%) (0 μM) | (B) DS-1: G1(60.37%) (2.5 μM); S(18.70%) (2.5 μM); G2(19.44%) (2.5 μM) | (C) DS-1: G1(65.10%) (5.0 μM); S(16.87%) (5.0 μM); G2(16.41%) (5.0 μM) | (D) DS-1: G0G1(65.65%) (7.5 μM); S(14.20%) (7.5 μM); G2M(19.60%) (7.5 μM) DOUBTS OF THE COPYIST ABOUT THIS PICTURE: The label DS-1 is printed only in panel L ("DS-1(μM)"); panels A-D print only the concentration, no substance label / Panel A (0 μM) is the untreated state; its values are given with the 0 μM heading as condition / All gate percentages in panels A-D are printed very small and blurred; 3, 5, 6, 8 and 9 cannot be told apart with certainty / A, G1: 54.88% or 54.89% / 54.68% / A, S: 19.57% or 19.67% / A, G2: 23.84% or 23.64% / B, G1: 60.37% or 60.31% / 80.37% / B, S: 18.70% or 16.70% / B, G2: 19.44% or 18.44% / C, G1: 65.10% or 65.16% / 63.10% / C, S: 16.87% or 16.67% / 18.87% / C, G2: 16.41% or 18.41% / D, G0G1: 65.65% or 65.85% / 66.65% / D, S: 14.20% or 14.26% / D, G2M: 19.60% or 19.80% / 19.66%

SMILES: Cc1cccc2c3c(ccc12)C1=C(C(=O)C3=O)[C@@H](C)CO1 [DS−1, 15,16-Dihydrotanshinone I]
- pAKT, fold of the control group ([1]; DS−1 5.0 µM): 2.06 ± 0.08 fold
- pAKT, fold of the control group ([1]; DS−1 7.5 µM): 2.10 ± 0.15 fold
- pAKT/AKT value ([1]; with the concentration of DS−1 (2.5, 5.0, 7.5 µM)): increased
- vimentin mRNA, fold of the control group ([2]; DS−1 2.5 µM): 0.67 ± 0.11 fold
- vimentin mRNA, fold of the control group ([2]; DS−1 5.0 µM): 0.51 ± 0.11 fold
- vimentin mRNA, fold of the control group ([2]; DS−1 7.5 µM): 0.12 ± 0.16 fold
- CDK2 mRNA, fold of the control group ([3]; first of three DS−1 doses (2.5 µM per Fig. 5 legend)): 0.85 ± 0.08 fold
- CDK2 mRNA, fold of the control group ([3]; second of three DS−1 doses (5.0 µM per Fig. 5 legend)): 0.80 ± 0.16 fold
- CDK2 mRNA, fold of the control group ([3]; third of three DS−1 doses (7.5 µM per Fig. 5 legend)): 0.66 ± 0.07 fold
- IL6 mRNA, fold ([4]; DS−1 2.5 µM): 0.81 ± 0.09 fold
- IL6 mRNA, fold ([4]; DS−1 5.0 µM): 0.51 ± 0.07 fold
- IL6 mRNA, fold ([4]; DS−1 7.5 µM): 0.42 ± 0.12 fold
- proportion of cells in G0/G1 phase ([5]; DS−1 2.5 µM): 61.07 ± 2.04%
- proportion of cells in G2/M phase ([5]; DS−1 2.5 µM): 18.65 ± 3.50
- proportion of cells in S phase ([5]; DS−1 2.5 µM): 20.10 ± 2.07
- proportion of cells in G0/G1 phase ([5]; DS−1 5.0 µM): 65.20 ± 4.35%
- proportion of cells in G2/M phase ([5]; DS−1 5.0 µM): 14.92 ± 4.67
- proportion of cells in S phase ([5]; DS−1 5.0 µM): 19.55 ± 3.08
- proportion of cells in G0/G1 phase ([5]; DS−1 7.5 µM): 65.65 ± 1.83%
- proportion of cells in G2/M phase ([5]; DS−1 7.5 µM): 19.60 ± 1.40
- proportion of cells in S phase ([5]; DS−1 7.5 µM): 14.20 ± 0.40
